Experimental data taken from patent US11129816B2, “Ring-fused thiazolino 2-pyridones in combination with a drug against tuberculosis” (QURETECH BIO AB, priority 2017, dated 2021).

What follows are molecules tested on Mycobacterium tuberculosis Erdman (assay: Treatment of Mycobacterium tuberculosis Erdman liquid culture with Q203 in the absence or presence of Example 1 (CFU count and ODλ600)). Conditions: Sauton's media; Example 1 25 μM or Q203 0.4 μM alone; day 15; compared to DMSO control.
Assay type: cell-based
O=C(O)[C@@H]1CSc2c(C3CC3)c(Cc3cccc4ccccc34)cc(=O)n21 [Example 1, (3R)-7-Cyclopropyl-6-[(1-naphthyl)methyl]-4-oxo-1-thia-3a-aza-3-indancarboxylic acid] was tested, and the “ODλ600 value (FIG. 3b)” value was “decrease the ODλ600 value considerably”.
CCc1nc2ccc(Cl)cn2c1C(=O)NCc1ccc(N2CCC(c3ccc(OC(F)(F)F)cc3)CC2)cc1 [Example Q203, 6-chloro-2-ethyl-N-[(4-{4-[4-(trifluoromethoxy)phenyl]piperidin-1-yl}phenyl)methyl]imidazo[1,2-a]pyridine-3-carboxamide, reference compound] was tested, and the “ODλ600 value (FIG. 3b)” value was “decrease the ODλ600 value considerably”.

What follows are molecules tested on Mtb (assay: Microplate Alamar Blue Assay (MABA)). Conditions: Mycobacterium tuberculosis.
Assay type: cell-based
Protocol: The IC50 value was measured for the compounds 55-65. The measurement was made in accordance with the Microplate Alamar Blue Assay (MABA) as described by Franzblau, S. G. et al in Tuberculosis (Edinb). 92, 453-88 (2012: The MABA utilizes the dye resazurin, which is dark blue and nonfluorescent in its oxidized form but becomes pink and fluorescent when reduced to resorufin as a result of cellular metabolism. The MABA is commonly used to evaluate the efficacy of compounds in restraining Mtb growth, but also serves as an assay for aerobic respiration. The degree of the color change was monitored and quantified, and performing this assay with a range of compound concentrations allowed for calculating IC50 values for compounds. The IC50 value is defined as the concentration of the compound that inhibits the MABA color change by 50%.
C#Cc1c(Cc2cccc3ccccc23)cc(=O)n2c1SCC2C(=O)O (stereo not shown) [Example 62, 1H-imidazol-1-ium 8-ethynyl-7-(naphthalen-1-ylmethyl)-5-oxo-3,5-dihydro-2H-thiazolo[3,2-a]pyridine-3-carboxylate] showed an IC50 of 53.5 µM.
O=C(O)C1CSc2c(C3CC3)c(-c3cc(-c4cccs4)no3)cc(=O)n21 (stereo not shown) [Example 58, 1H-imidazol-1-ium 8-cyclopropyl-5-oxo-7-(3-(thiophen-2-yl)isoxazol-5-yl)-3,5-dihydro-2H-thiazolo[3,2-a]pyridine-3-carboxylate] showed an IC50 of 28.9 µM.
For O=C(O)C1CSc2c(-c3cc(-c4ccccc4)no3)c(Cc3cccc4ccccc34)c(Br)c(=O)n21 (stereo not shown) [Example 60, 1H-imidazol-1-ium 6-bromo-7-(naphthalen-1-ylmethyl)-5-oxo-8-(3-phenylisoxazol-5-yl)-3,5-dihydro-2H-thiazolo[3,2-a]pyridine-3-carboxylate], the IC50 was 4.51 µM.
O=C(O)C1CSc2c(-c3cc(-c4cccc5ccccc45)no3)c(Cc3cccc4ccccc34)cc(=O)n21 (stereo not shown) [Example 64, 1H-imidazol-1-ium 8-(3-(naphthalen-1-yl)isoxazol-5-yl)-7-(naphthalen-1-ylmethyl)-5-oxo-3,5-dihydro-2H-thiazolo[3,2-a]pyridine-3-carboxylate] was tested, and the IC50 was 14.4 µM.
O=C(O)C1CSc2c(C3CC3)c(Cc3cccc4ccccc34)cc(=O)n21 (stereo not shown) [Example 65, 1H-imidazol-1-ium 8-cyclopropyl-7-(naphthalen-1-ylmethyl)-5-oxo-3,5-dihydro-2H-thiazolo[3,2-a]pyridine-3-carboxylate] was tested, and the IC50 was 8.47 µM.
Molecule O=C(O)C1CSc2c(C3CC3)c(-c3nc4ccccc4o3)cc(=O)n21 (stereo not shown) [Example 55, 1H-imidazol-1-ium 7-(benzo[d]oxazol-2-yl)-8-cyclopropyl-5-oxo-3,5-dihydro-2H-thiazolo[3,2-a]pyridine-3-carboxylate] has an IC50 of 39.1 µM.
Molecule O=C(O)C1CSc2c(C3CC3)c(-c3cc(-c4cccc5ccccc45)no3)cc(=O)n21 (stereo not shown) [Example 56, 1H-imidazol-1-ium 8-cyclopropyl-7-(3-(naphthalen-1-yl)isoxazol-5-yl)-5-oxo-3,5-dihydro-2H-thiazolo[3,2-a]pyridine-3-carboxylate] has an IC50 of 2.53 µM.
For O=C(O)C1CSc2c(-c3cc(-c4ccccc4)no3)c(Cc3cccc4ccccc34)cc(=O)n21 (stereo not shown) [Example 63, 1H-imidazol-1-ium 7-(naphthalen-1-ylmethyl)-5-oxo-8-(3-phenylisoxazol-5-yl)-3,5-dihydro-2H-thiazolo[3,2-a]pyridine-3-carboxylate], the IC50 was 12.7 µM.
For O=C(O)C1CSc2c(C3CC(c4ccccc4)=NO3)c(Cc3cccc4ccccc34)cc(=O)n21 (stereo not shown) [Example 61, 1H-imidazol-1-ium 7-(naphthalen-1-ylmethyl)-5-oxo-8-(3-phenyl-4,5-dihydroisoxazol-5-yl)-3,5-dihydro-2H-thiazolo[3,2-a]pyridine-3-carboxylate], the IC50 was 82.7 µM.
Molecule O=C(O)C1CSc2c(C3CC3)c(-c3cc(-c4cccc(C(F)(F)F)c4)no3)cc(=O)n21 (stereo not shown) [Example 57, 1H-imidazol-1-ium 8-cyclopropyl-5-oxo-7-(3-(3-(trifluoromethyl)phenyl)isoxazol-5-yl)-3,5-dihydro-2H-thiazolo[3,2-a]pyridine-3-carboxylate] has an IC50 of 2.53 µM.
Work on O=C(O)C1CSc2c(C3CC3)c(-c3cc(-c4ccccc4)no3)cc(=O)n21 (stereo not shown) [Example 59, 1H-imidazol-1-ium 8-cyclopropyl-5-oxo-7-(3-phenylisoxazol-5-yl)-3,5-dihydro-2H-thiazolo[3,2-a]pyridine-3-carboxylate] yielded an IC50 of 15.6 µM.
